Data reported in BindingDB's records for doi:10.1016/j.bmc.2008.11.012 (Nippon Shinyaku, 2009).

Experiments:
[1] = target: Nociceptin receptor (Homo sapiens, UniProt P41146); assay: Receptor Binding Assay; conditions: pH 7.8; 25 °C
Procedure: (§1) Competitive binding displacement analysis was performed with membranes prepared from CHO-K1 cells stably expressing receptors. After incubation, samples were collected on GF/B glass-fiber, washed, and counted for radioactivity. IC50 values were obtained by fitting the competition binding curves according to a 4-parameter logistic model. Inhibition constants Ki were derived from the Cheng-Prusoff equation.

[2] = target: Mu-type opioid receptor (Rattus norvegicus, UniProt P33535); assay: Receptor Binding Assay
Procedure: as §1

Chain of Nociceptin receptor (P41146 whole entry): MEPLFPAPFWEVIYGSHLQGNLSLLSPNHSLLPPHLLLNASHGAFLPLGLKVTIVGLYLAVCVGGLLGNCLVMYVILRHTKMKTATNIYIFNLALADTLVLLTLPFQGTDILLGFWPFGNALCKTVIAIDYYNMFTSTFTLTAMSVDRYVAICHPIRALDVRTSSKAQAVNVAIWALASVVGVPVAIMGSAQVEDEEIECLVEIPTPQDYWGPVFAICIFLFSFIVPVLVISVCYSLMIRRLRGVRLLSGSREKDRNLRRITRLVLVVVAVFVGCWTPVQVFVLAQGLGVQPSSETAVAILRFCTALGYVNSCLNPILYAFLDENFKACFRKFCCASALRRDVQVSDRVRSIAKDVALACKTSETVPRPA
Chain of Mu-type opioid receptor (P33535 whole entry): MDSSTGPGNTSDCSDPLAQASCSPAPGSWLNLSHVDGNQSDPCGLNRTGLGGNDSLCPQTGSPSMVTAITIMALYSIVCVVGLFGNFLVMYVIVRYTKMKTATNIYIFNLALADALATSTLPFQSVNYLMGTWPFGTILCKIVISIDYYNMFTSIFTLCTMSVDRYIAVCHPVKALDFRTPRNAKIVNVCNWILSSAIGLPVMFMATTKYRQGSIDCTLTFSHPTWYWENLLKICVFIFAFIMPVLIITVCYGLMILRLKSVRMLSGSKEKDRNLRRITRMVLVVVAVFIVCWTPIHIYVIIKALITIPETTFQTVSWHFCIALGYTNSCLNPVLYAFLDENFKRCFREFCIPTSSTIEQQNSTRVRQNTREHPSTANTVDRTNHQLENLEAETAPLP

| Ki [1] [nM] | Ki [2] [nM] | SMILES |
| --- | --- | --- |
| 43 | 220 | Cc1ccc2nc(C=Cc3ccc(Cl)cc3)nc(N[C@H]3CCCC[C@H]3NC(=N)N)c2c1 (racemic) [(1R,2S)-2-({2-[(E)-2-(4-chlorophenyl)ethenyl]-6-methylquinazolin-4-yl}amino)cyclohexane-1-guanidine] |
| 152 | 60 | Cc1ccc2nc(C=Cc3ccc(Cl)cc3)nc(N[C@H]3CC[C@@H](N=C(N)N)CC3)c2c1 [4-({2-[(E)-2-(4-chlorophenyl)ethenyl]-6-methylquinazolin-4-yl}amino)cyclohexane-1-guanidine] |
